Data from US9365522B2, “Pyrazole amide derivative” (AMGEN INC., priority 2015, dated 2016).

Target: T1, ligand binding domain of human ROR gamma (Homo sapiens, UniProt P51449)
T1 construct: NM_001001523; expressed in transfected cells; host or cells: HEK293T
T1 sequence (P51449 247-497 isoform P51449-2): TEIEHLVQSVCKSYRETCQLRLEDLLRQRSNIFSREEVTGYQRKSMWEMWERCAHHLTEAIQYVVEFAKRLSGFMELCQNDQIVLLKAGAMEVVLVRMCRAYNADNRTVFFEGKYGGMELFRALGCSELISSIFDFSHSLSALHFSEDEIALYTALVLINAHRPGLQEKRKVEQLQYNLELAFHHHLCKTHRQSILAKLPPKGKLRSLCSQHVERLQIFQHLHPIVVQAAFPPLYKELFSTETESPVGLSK
Assay: ROR gamma reporter gene assay (GAL4-RORγ LBD luciferase, Dual-Glo)
Type: cell-based
Settings: HEK293T cells transfected with pM-ROR gamma, 8 concentrations 3.5 nM to 10.5 μM, 24 h incubation; read-out: result (pIC50, inhibition of RORγ transcriptional activity) (converted)
Summary of the method: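 Transient GAL4-RORγ LBD (aa 247-497) / 5×UAS-luc / pRL-CMV cotransfection in HEK293T, charcoal-stripped 10% FBS. 8-pt dose, 3.5 nM–10.5 μM, 0.075% DMSO final. 24 h, 37 °C, 5% CO2. Dual-Glo firefly/renilla readout; pIC50 from curve fit.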

IC50 | SMILES
16600 pM | CCC(C)(C)CN(CC(=O)c1c(Cl)cc(Cl)cc1Cl)C(=O)c1cnn(C23CCC(C(=O)O)(CC2)CC3)c1C(F)(F)F [Example 308, 4-(4-(2,2-dimethylbutyl-(2-oxo-2-(2,4,6-trichlorophenyl)ethyl)carbamoyl)-5-(trifluoromethyl)pyrazol-1-yl)bicyclo[2.2.2]octane-1-carboxylic acid]
11200 pM | CCC(C)(C)CN(CC(=O)c1c(Cl)cc(F)cc1Cl)C(=O)c1cnn(C23CCC(C(=O)O)(CC2)CC3)c1C(F)(F)F [Example 309, 4-(4-((2-(2,6-dichloro-4-fluorophenyl)-2-oxoethyl)-(2,2 dimethylbutyl)carbarnoyl)-5-(trifluoromethyl)pyrazol-1-yl)bicyclo [2.2.2] octane-1-carboxylic acid]
> 1.05e+07 pM | CC(C)(C)CN(CC(=O)c1c(Cl)cncc1Cl)C(=O)c1cnn([C@H]2CC[C@](C)(C(=O)O)CC2)c1C#N [Example 310, trans-4-(5-cyano-4-((2-(3,5-dichloropyridin-4-yl)-2-oxoethyl)-(2,2-dimethylpropyl)carbamoyl)pyrazol-1-yl)-1-methylcyclohexane-1-carboxylic acid]
> 1.05e+07 pM | CN1C(C)(C)CC(N(CC(=O)c2c(Cl)cncc2Cl)C(=O)c2cnn([C@H]3CC[C@](C)(C(=O)O)CC3)c2C(F)(F)F)CC1(C)C [Example 311, trans-4-(4-((2-(3,5-dichloropyridin-4-yl)-2-oxoethyl)-(1,2,2,6,6-pentamethylpiperidin-4-yl)carbamoyl)-5-(trifluoromethyl)pyrazol-1-yl)-1-methylcyclohexane-1-carboxylic acid]
52500 pM | CC(C)CC(C)N(CC(=O)c1c(Cl)cncc1Cl)C(=O)c1cnn([C@H]2CC[C@](C)(C(=O)O)CC2)c1C(F)(F)F (stereo partly drawn) [Example 312, trans-4-(4-((2-(3,5-dichloropyridin-4-yl)-2-oxoethyl)-(4-methylpentan-2-yl)carbamoyl)-5-(trifluoromethyl)pyrazol-1-yl)-1-methylcyclohexane-1-carboxylic acid]
1.55e+06 pM | COCC(C)N(CC(=O)c1c(Cl)cncc1Cl)C(=O)c1cnn([C@H]2CC[C@](C)(C(=O)O)CC2)c1C(F)(F)F (stereo partly drawn) [Example 313, trans-4-(4-((2-(3,5-dichloropyridin-4-yl)-2-oxoethyl)-(1-methoxypropan-2-yl)carbamoyl)-5-(trifluoromethyl)pyrazol-1-yl)-1-methylcyclohexane-1-carboxylic acid]
41700 pM | CC(C)=CCN(CC(=O)c1c(Cl)cncc1Cl)C(=O)c1cnn([C@H]2CC[C@](C)(C(=O)O)CC2)c1C(F)(F)F [Example 314, trans-4-(4-((2-(3,5-dichloropyridin-4-yl)-2-oxoethyl)-(3-methylbut-2-enyl)carbamoyl)-5-(trifluoromethyl)pyrazol-1-yl)-1-methylcyclohexane-1-carboxylic acid]
55000 pM | COc1cncc(Cl)c1C(=O)CN(CC(C)(C)C)C(=O)c1cnn([C@H]2CC[C@](C)(C(=O)O)CC2)c1C(F)(F)F [Example 315, trans-4-(4-((2-(3-chloro-5-methoxypyridin-4-yl)-2-oxoethyl)-(2,2-dimethylpropyl)carbamoyl)-5-(trifluoromethyl)pyrazol-1-yl)-1-methylcyclohexane-1-carboxylic acid]
9120 pM | CC1(CN(CC(=O)c2c(Cl)cncc2Cl)C(=O)c2cnn(C34CCC(C(=O)O)(CC3)CC4)c2C(F)(F)F)CC1 [Example 316, 4-(4-((2-(3,5-dichioropyridin-4-yl)-2-oxoethyl)-((1-methylcyclopropyl)methyl)carbamoyl)-5-(trifluoromethyl)pyrazol-1-yl)bicyclo[2.2.2]octane-1-carboxylic acid]
10000 pM | CC(C)(C)CN(CC(=O)c1c(Cl)cccc1Cl)C(=O)c1cnn(C23CCC(C(=O)O)(CC2)CC3)c1C(F)(F)F [Example 317, 4-(4-((2-(2,6-dichlorophenyl)-2-oxoethyl)-(2,2-dimethylpropyl)carbamoyl)-5-(trifluoromethyl)pyrazol-1-yl)bicyclo[2.2.2]octane-1-carboxylic acid]
20000 pM | CC(C)(C)OCCN(CC(=O)c1c(Cl)cncc1Cl)C(=O)c1cnn([C@H]2CC[C@](C)(C(=O)O)CC2)c1C(F)(F)F [Example 318, trans-4-(4-((2-(3,5-dichloropyridin-4-yl)-2-oxoethyl)-(2-((2-methylpropan-2-yl)oxy)ethyl)carbamoyl)-5-(trifluoromethyl)pyrazol-1-yl)-1-methylcyclohexane-1-carboxylic acid]
141000 pM | CC(C)CC1(N(CC(=O)c2c(Cl)cncc2Cl)C(=O)c2cnn([C@H]3CC[C@](C)(C(=O)O)CC3)c2C(F)(F)F)CC1 [Example 319, trans-4-(4-((2-(3,5-dichloropyridin-4-yl)-2-oxoethyl)-(1-(2-methylpropyl)cyclopropyl)carbamoyl)-5-(trifluoromethyl)pyrazol-1-yl)-1-methylcyclohexane-1-carboxylic acid]
9770 pM | CC1(C)[C@@H]2C[C@H](N(CC(=O)c3c(Cl)cccc3Cl)C(=O)c3cnn(C45CCC(C(=O)O)(CC4)CC5)c3C(F)(F)F)C[C@@H]21 [Example 320, 4-(4-((2-(2,6-dichlorophenyl)-2-oxoethyl)((1R,3r,5S)-6,6-dimethylbicyclo[3.1.0]hexan-3-yl)carbamoyl)-5-(trifluoromethyl)-1H-pyrazol-1-yl)bicyclo [2.2.2] octane-1-carboxylic acid]
11700 pM | Cc1cc(Cl)c(C(=O)CN(C(=O)c2cnn(C34CCC(C(=O)O)(CC3)CC4)c2C(F)(F)F)[C@H]2C[C@@H]3[C@H](C2)C3(C)C)c(Cl)c1 [Example 321, 4-(4-((2-(2,6-dichloro-4-methylphenyl)-2-oxoethyl)((1R,3r,5S)-6,6-dimethylbicyclo[3.1.0]hexan-3-yl)carbamoyl)-5-(trifluoromethyl)-1H-pyrazol-1-yl)bicyclo[2.2.2]octane-1-carboxylic acid]
8130 pM | CC1(C)C(CN(CC(=O)c2c(Cl)cncc2Cl)C(=O)c2cnn(C34CCC(C(=O)O)(CC3)CC4)c2C(F)(F)F)C1(C)C [Example 322, 4-(4-((2-(3,5-dichloropyridin-4-yl)-2-oxoethyl)-((2,2,3,3-tetramethylcyclopropyl)methyl)carbamoyl)-5-(trifluoromethyl)pyrazol-1-yl)bicyclo[2.2.2]octane-1-carboxylic acid]
380000 pM | CC1(C)CCC(N(CC(=O)c2c(Cl)cncc2Cl)C(=O)c2cnn([C@H]3CC[C@](C)(C(=O)O)CC3)c2C(F)(F)F)CO1 (stereo partly drawn) [Example 323, trans-4-(4-((2(3,5-dichloropyridin-4-yl)-2-oxoethyl)-(6,6-dimethyloxan-3-yl)carbamoyl)-5-(trifluorornethyl)pyrazol-1-yl)-1-methylcyclohexane-1-carboxylic acid]
380000 pM | C[C@]1(C(=O)O)CC[C@H](n2ncc(C(=O)N(CC(=O)c3c(Cl)cncc3Cl)CC3(O)CCCC3)c2C(F)(F)F)CC1 [Example 324, trans-4-(4-((2-(3,5-dichloropyridin-4-yl)-2-oxoethyl)-((1-hydroxycyclopentyl)methyl)carbamoyl)-5-(trifluoromethyl)pyrazol-1-yl)-1-methylcyclohexane-1-carboxylic acid]
10700 pM | CC1(C)C(CN(CC(=O)c2c(Cl)cncc2Cl)C(=O)c2cnn([C@H]3CC[C@](C)(C(=O)O)CC3)c2C(F)(F)F)C1(C)C [Example 325, trans-4-(4-((2-(3,5-dichloropyridin-4-yl)-2-oxoethyl)-((2,2,3,3-tetramethylcyclopropyl)methyl)carbamoyl)-5-(trifluoromethyl)pyrazol-1-yl)-1-methylcyclohexane-1-carboxylic acid]
102000 pM | CC(C)(F)CN(CC(=O)c1c(Cl)cncc1Cl)C(=O)c1cnn([C@H]2CC[C@](C)(C(=O)O)CC2)c1C(F)(F)F [Example 326, trans-4-(4-((2-(3,5-dichloropyridin-4-yl)-2-oxoethyl)-(2-fluoro-2-methylpropyl)carbamoyl)-5-(trifluoromethyl)pyrazol-1-yl)-1-methylcyclohexane-1-carboxylic acid]
97700 pM | CC(C)(F)CN(CC(=O)c1c(Cl)cncc1Cl)C(=O)c1cnn(C23CCC(C(=O)O)(CC2)CC3)c1C(F)(F)F [Example 327, 4-(4-((2-(3,5-dichloropyridin-4-yl)-2-oxoethyl)-(2-fluoro-2-methylpropyl)carbamoyl)-5-(trifluoromethyl)pyrazol-1-yl)bicyclo[2.2.2]octane-1-carboxylic acid]
2.95e+06 pM | CC(C)(C)CN(CCc1c[nH]c2ccccc12)C(=O)c1cnn([C@H]2CC[C@](C)(C(=O)O)CC2)c1C(F)(F)F [Example 328, trans-4-(4-(2,2-dimethylpropyl-(2-(1H-indol-3-yl)ethyl)carbamoyl)-5-(trifluoromethyl)pyrazol-1-yl)-1-methylcyclohexane-1-carboxylic acid]
14800 pM | O=C(CN(CC1(C(F)(F)F)CC1)C(=O)c1cnn(C23CCC(C(=O)O)(CC2)CC3)c1C(F)(F)F)c1c(Cl)cncc1Cl [Example 329, 4-(4-((2-(3,5-dichloropyridin-4-yl)-2-oxoethyl)-((1-(trifluoromethyl)cyclopropyl)methyl)carbamoyl)-5-(trifluoromethyl)pyrazol-1-yl)bicyclo[2.2.2]octane-1-carboxylic acid]
24000 pM | C[C@]1(C(=O)O)CC[C@H](n2ncc(C(=O)N(CC(=O)c3c(Cl)cncc3Cl)CC3(C(F)(F)F)CC3)c2C(F)(F)F)CC1 [Example 330]
